Laboratory results as given in the supplement of paper PMC10307832.

Key:
Assay in all cases: relative viability (nuclei count vs DMSO), 5 days (fraction); higher = more cells survive
[1] = compound: Cc1ccc(C(=O)Nc2cccc(C(F)(F)F)c2)cc1Nc1cncc(C(N)=O)c1 [ALW-II-49-7] + CC(=O)Nc1cccc(-n2c(=O)n(C3CC3)c(=O)c3c(Nc4ccc(I)cc4F)n(C)c(=O)c(C)c32)c1 [Trametinib] (partner 0.02 µM)
Outline: (§1)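 For relative viability, nuclei counts in treated wells were divided by those in vehicle wells. Lung cancer cell lines had been pin-tool dosed in 1536-well plates the day after seeding and cultured for 5 days, then fixed and stained in one step (final 0.05% Triton X-100, 1% formaldehyde, 1 ug/ml Hoechst) and imaged at 4×. Doses were one drug alone or a fixed anchor-drug dose plus five library-drug doses (not always all listed) in √10 steps, and values are duplicate-plate medians.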

[2] = compound: Cc1ccc(C(=O)Nc2cccc(C(F)(F)F)c2)cc1Nc1cncc(C(N)=O)c1 [ALW-II-49-7] + NC(=O)Nc1cc(-c2cccc(F)c2)sc1C(=O)N[C@H]1CCCNC1 [AZD7762] (partner 0.2 µM)
Outline: as §1

[3] = compound: C1CC1C(=O)NC2=NNC3=C2C=CC(=C3)C4=CC(=CC=C4)C(=O)NC5CC5 [XMD13-2] + Cc1nc(NC(=O)N2CCC[C@H]2C(N)=O)sc1-c1ccnc(C(C)(C)C(F)(F)F)c1 [Alpelisib] (partner 2 µM)
Outline: as §1

[4] = compound: Cc1ccc(C(=O)Nc2cccc(C(F)(F)F)c2)cc1Nc1cncc(C(N)=O)c1 [ALW-II-49-7]
Outline: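 Hoechst staining, done together with fixation and permeabilisation, marked nuclei for 4× imaging and MetaXpress counting. This followed 5 days without medium change after lung cancer cell lines, kept overnight at 37 °C in 1536-well plates, were pinned with five library-drug doses (not always all listed) spaced by √10 on vehicle-anchored plates. Viability is the ratio of treated-well to vehicle-well nuclei, expressed as a median across plates. Plates passed only at control CV below 25% with at least one doubling.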

Cell Line | relative viability ([1]; first compound 0.08 µM) | relative viability ([1]; first compound 0.253 µM) | relative viability ([1]; first compound 0.8 µM) | relative viability ([1]; first compound 2.53 µM) | relative viability ([1]; first compound 8 µM) | relative viability ([2]; first compound 0.08 µM) | relative viability ([2]; first compound 0.253 µM) | relative viability ([2]; first compound 0.8 µM) | relative viability ([2]; first compound 2.53 µM) | relative viability ([2]; first compound 8 µM) | relative viability ([3]; first compound 0.05 µM) | relative viability ([3]; first compound 0.1581 µM) | relative viability ([3]; first compound 0.5 µM) | relative viability ([3]; first compound 1.581 µM) | relative viability ([3]; first compound 5 µM) | relative viability ([4]; 0.08 µM) | relative viability ([4]; 0.253 µM) | relative viability ([4]; 0.8 µM) | relative viability ([4]; 2.53 µM) | relative viability ([4]; 8 µM)
NCI-H2087 | 0.214 | 0.211 | 0.228 | 0.189 | 0.188 | 1.52 | 1.46 | 1.18 | 1.14 | 1.11 | 1.14 | 1.08 | 1.13 | 1.05 | 1.03 | 1.07 | 1.01 | 1.06 | 1.02 | 0.915
NCI-H2126 | 0.595 | 0.561 | 0.541 | 0.526 | 0.574 | 0.981 | 1.05 | 0.913 | 1 | 0.984 | 0.825 | 0.754 | 0.754 | 0.767 | 0.795 | 0.918 | 1.03 | 1.02 | 0.926 | 0.992
NCI-H2170 | 0.925 | 0.937 | 0.977 | 0.924 | 0.854 | 1.03 | 0.775 | 0.833 | 0.835 | 0.817 | 0.97 | 0.77 | 0.871 | 0.777 | 0.696 | 1 | 0.969 | 0.973 | 0.908 | 0.966
NCI-H2347 | 0.326 | 0.299 | 0.252 | 0.297 | 0.28 | 1.02 | 0.727 | 0.606 | 0.676 | 0.638 | 1.04 | 1.07 | 1.08 | 0.92 | 1.05 | 1.05 | 0.968 | 1.04 | 0.973 | 0.949
NCI-H2405 | 0.662 | 0.699 | 0.637 | 0.47 | 0.467 | 0.746 | 0.808 | 0.553 | 0.645 | 0.485 | 0.935 | 0.875 | 0.807 | 0.81 | 0.863 | 1.01 | 1.06 | 0.961 | 0.963 | 0.802
NCI-H3122 | 0.243 | 0.235 | 0.292 | 0.311 | 0.222 | 1.05 | 0.853 | 1.06 | 1.05 | 1.03 | 0.784 | 0.678 | 0.782 | 0.945 | 0.819 | 1.05 | 0.868 | 1.06 | 1.05 | 1.07
PC-3 [JPC-3] | 0.676 | 0.786 | 0.745 | 0.809 | 0.847 | 0.738 | 0.735 | 0.68 | 0.801 | 0.672 | 1.05 | 0.983 | 1.06 | 1.02 | 0.936 | 1.08 | 1.04 | 1.04 | 1.13 | 0.971
PC-14 | 0.722 | 0.826 | 0.717 | 0.683 | 0.665 | 0.445 | 0.318 | 0.447 |  | 0.236 | 1.01 | 0.936 | 1.01 | 0.931 | 1.11 | 0.933 | 0.98 | 0.95 | 0.961 | 0.898
RERF-LC-KJ | 0.867 | 0.923 | 0.816 | 0.749 | 0.833 | 1.15 | 0.995 | 0.827 | 0.975 | 0.956 | 0.776 | 0.902 | 0.842 | 0.641 | 0.91 | 1.02 | 1.06 | 0.997 | 0.911 | 0.939
